In patent US20100144779A1, “Marine Alkalod Makaluvamines and Derivatives Thereof” (THE UAB RESEARCH FOUNDATION, priority 2007, published 2010):

Experiments:
MDA-MB-468 = experiment: XTT cytotoxicity assay; type: cell-based, human; details: average ± standard deviation of 2-4 independent assays, read-out: Inhibition of Cancer Cell Proliferation (IC50) MDA-MB-468
Procedure: (§1) In initial experiments, compounds 4a-g and 7c-g were evaluated for their cytotoxicity against human breast cancer cell lines MCF-7 and MDA-MB-468 and human colon cancer cell line HCT-116. The makaluvamine compounds provided in Table 2 were also evaluated for their cytotoxicity against human breast cancer cell lines MCF-7. Compound nos. 8 and 27-33 were not evaluated in this experiment. Cells were obtained from ATCC (Manassas, Va.). For each derivative the IC50 value was determined using data generated from 2-4 independent tetrazolium-based (XTT) cytotoxicity assays (R & D Systems Inc., Minneapolis, Minn.) according to the manufacturer's instructions. […] MCF-7, MDA-MD-468 and HCT-116 cells were grown at 37 degrees C. in a humidified atmosphere with complete growth media supplemented with fetal bovine serum. Growth media was changed 2-3 times per week as required.

HCT-116 = experiment: XTT cytotoxicity assay; type: cell-based, human; details: average ± standard deviation of 2-4 independent assays, read-out: Inhibition of Cancer Cell Proliferation (IC50) HCT-116
Procedure: as §1

MCF-7 = experiment: XTT cytotoxicity assay; type: cell-based, human; details: XTT; average ± standard deviation of 2-4 independent assays; read-out: Inhibition of Cancer Cell Proliferation (IC50) MCF-7
Procedure: as §1

[1] = test system: different cancer cell lines; experiment: Induction of apoptosis (annexin V-FITC); type: cell-based, human; details: annexin V-FITC/PI; 0.1-25 μM, 48 hr; effect in the 1-10 μM range
Procedure: Cells in early and late stages of apoptosis were detected with an annexin V-FITC apoptosis detection kit from BioVision (Mountain View, Calif.). In brief, cells were exposed to the test compounds (0, 0.1, 1, 10, 25 μM) and incubated for 48 hr prior to analysis. Media and cells were collected and washed with serum-free media. Cells were then re-suspended in 500 μL of Annexin V binding buffer followed by addition of 5 μL Annexin VFITC and 5 μL of propidium iodide (PI). The samples were incubated in the dark for 5 min at room temperature prior to analysis. […] Cells that were positive for Annexin V-FITC alone (early apoptosis) and Annexin V-FITC and PI (late apoptosis) were counted.

[2] = test system: female, athymic nude mice; details: 8, 20 or 40 mg/kg intra-peritoneally, 1 time per week for 3 weeks
Procedure: To evaluate the potential toxicity of the makaluvamine compounds disclosed, compound 4c was identified for testing in a mouse model. […] Four groups of 5 female, athymic nude mice (Federick Cancer Research, Rockville, Md.) were injected intra-peritoneally, at doses of 8, 20 or 40 mg/kg of compounds 4c (treatment group) or vehicle only (control group). […] Compound 4c was injected at its respective dose in a 200 μl volume of saline:DMSO (100 μl:100 μl). The vehicle only group was injected with 200 μl saline:DMSO. Injections were given 1 time per week for 3 weeks. […] Mice in each groups were evaluated for survival and weight gain/loss during the treatment period.

H1299 = experiment: Cell cycle progression (propidium iodide, flow cytometry); type: cell-based, human; details: 48 hr; for G1 / G2/M / S: H1299; for cell cycle arrest: lung cancer H1299, dose-dependent
Procedure: (§2) To determination of the effects of the disclosed compounds on the cell cycle, 2-3×10^5 cells were exposed to the test compounds (0-5 μM) and incubated for 48 hr prior to analysis (Table 6). Cells were trypsinized, washed with PBS and fixed in 1.5 mL 95% ethanol at 4° C. overnight, followed by incubation with RNAse and staining with propidium iodide (Sigma). The DNA content was determined by flow cytometry.

A549 = experiment: as above; type: cell-based, human; details: 48 hr; for G1 / G2/M / S: A549; for cell cycle arrest: lung cancer A549, dose-dependent
Procedure: as §2

HCT116 = experiment: as above; type: cell-based, human; details: 48 hr; for G1 / G2/M / S: HCT116
Procedure: as §2

cdc25c = experiment: Protein expression, Western blot in MCF-7 cells; type: cell-based, human; details: 24 h (FIG. 4B)
Procedure: (§3) In FIG. 4A, MCF-7 cells were exposed to 1 μM concentration of the indicated compounds for 6 hours. Western blots were probed with antibodies specific for the proteins indicated. Numbers below each lane show densitometry readings for each lane as compared to control. In FIG. 4B, MCF-7 cells were exposed to the indicated concentration of compound 28 and incubated for 24 hours. Western blots were probed with antibodies specific for the proteins indicated.
(§4) To determine the disclosed compounds effect on protein expression in human breast cancer cells, cultured MCF-7 cells were exposed to various concentrations of the test compounds for 6 h (FIG. 4A) or 24 h (FIG. 4B). Cell lysates were fractionated with identical amounts of protein by SDS-PAGE and transferred to Bio-Rad trans-Blot nitrocellulose membranes (Bio-Rad Laboratories, Hercules, Calif.). The nitrocellulose membrane was incubated in blocking buffer (Tris-buffered saline containing 0.1% Tween 20 and 5% nonfat milk) for 1 h at room temperature, then with the appropriate primary antibody overnight at 4° C. or 2 h at room temperature with gentle shaking. Finally, the membrane was washed three times with the washing buffer (Tris-buffered saline containing 0.1% Tween 20) for 15 min, incubated with goat anti mouse/rabbit IgG-horseradish peroxidase-conjugated antibody (Bio-Rad) for 1 h at room temperature, and washed again (in triplicate). The protein of interest was detected by enhanced chemiluminescence reagents from PerkinElmer LAS, Inc (Boston, Mass.).

cleaved PARP = experiment: Protein expression, Western blot in MCF-7 cells; type: cell-based, human; details: 24 h (FIG. 4B)
Procedure: as §3, §4

E2F1 = experiment: Protein expression, Western blot in MCF-7 cells; type: cell-based, human; details: 24 h (FIG. 4B)
Procedure: as §3, §4

cdc2 = experiment: Protein expression, Western blot in MCF-7 cells; type: cell-based, human; details: 24 h (FIG. 4B)
Procedure: as §3, §4

SMILES | IC50 (MDA-MB-468) | IC50 (HCT-116) | IC50 (MCF-7) | G1 (H1299; 0.1 μM) | G2/M (H1299; 0.1 μM) | S (H1299; 0.1 μM) | G1 (H1299; 1 μM) | G2/M (H1299; 1 μM) | S (H1299; 1 μM) | cell cycle arrest (H1299) | G1 (A549; 0.1 μM) | G2/M (A549; 0.1 μM) | S (A549; 0.1 μM) | G1 (A549; 1 μM) | G2/M (A549; 1 μM) | S (A549; 1 μM) | G1 (A549; 5 μM) | G2/M (A549; 5 μM) | S (A549; 5 μM) | cell cycle arrest (A549) | other results
CNC1=CC2=NCCc3c[nH]c(c32)C1=O [Compound 4a] | 0.4 ± 0.05 µM | 2.5 ± 1.3 µM | 1.3 ± 0.1 µM | – | – | – | – | – | – | – | – | – | – | – | – | – | – | – | – | – | –
O=C1C(NCc2ccccc2)=CC2=NCCc3c[nH]c1c32 [Compound 4c] | 0.3 µM | 1.3 ± 0.2 µM | 1 µM | 55.27 | 26.89 | 17.84 | 51.18 | 29.35 | 19.47 | cell cycle arrest in the G2/M phase | 60.23 | 19.41 | 20.37 | 58.62 | 19.85 | 21.53 | 47.18 | 30.35 | 22.48 | cell cycle arrest in the G2/M phase | induction of apoptosis [1]: significant induction of apoptosis; weight changes between treatment groups [2]: No significant weight changes; weight gain/loss during the treatment period [2]: all mice gained weight; survival ([2]; observed 21 days): 100%; G1 (H1299; 2 μM): 30.46; G2/M (H1299; 2 μM): 49.58; S (H1299; 2 μM): 19.96
O=C1C(NCCc2ccccc2)=CC2=NCCc3c[nH]c1c32 [Compound 4d] | 0.3 µM | 3.9 ± 1.2 µM | 1.7 ± 0.5 µM | – | – | – | – | – | – | – | – | – | – | – | – | – | – | – | – | – | –
O=C(O)C(F)(F)F.O=C1C(NCCc2ccc3c(c2)OCO3)=CC2=NCCc3c[nH]c1c32 [Compound 6] | – | – | – | 53.99 | 30.73 | 15.28 | 57.20 | 27.57 | 15.22 | cell cycle arrest in the G2/M phase | 58.66 | 20.85 | 20.50 | 58.59 | 20.37 | 21.04 | 50.88 | 23.36 | 25.76 | cell cycle arrest in the G2/M phase | G1 (H1299; 5 μM): 35.29; G2/M (H1299; 5 μM): 41.28; S (H1299; 5 μM): 23.43
O=C(O)C(F)(F)F.O=C1C(NCc2ccc(F)cc2)=CC2=NCCc3c[nH]c1c32 [Compound 28] | – | – | – | 54.23 | 25.17 | 20.60 | 46.88 | 31.82 | 21.31 | cell cycle arrest in the S phase | 59.91 | 20.22 | 19.87 | 57.88 | 20.14 | 21.98 | 46.78 | 25.07 | 28.14 | cell cycle arrest in the S phase | induction of apoptosis [1]: significant induction of apoptosis; G1 (H1299; 2 μM): 31.52; G2/M (H1299; 2 μM): 36.36; S (H1299; 2 μM): 32.11; G1 (HCT116; 0.5 μM): 31.82; G2/M (HCT116; 0.5 μM): 45.04; S (HCT116; 0.5 μM): 23.14; G1 (HCT116; 1 μM): 28.40; G2/M (HCT116; 1 μM): 38.17; S (HCT116; 1 μM): 33.43; cell cycle arrest (HCT116; colon cancer HCT116, dose-dependent): cell cycle arrest in the S and G2/M phase; expression level of cdc25c (cdc25c): decreased; expression of cleaved PARP (cleaved PARP): increased expression; expression level of E2F1 (E2F1): decreased; expression level of cdc2 (cdc2): decreased
